Like-named read-outs stand apart in the source and are kept apart here.
Experiments:
[1] = test system: Aedes aegypti; test: Aedes aegypti (Yellow fever mosquito) larvae test; assay type: in vivo; conditions: 48 h
[2] = test system: Erysiphe graminis f.sp. tritici; test: Erysiphe graminis f.sp. tritici (wheat powdery mildew) leaf disk assay; assay type: in vivo; conditions: Blumeria graminis, foliar, 96 h, preventive, four days after inoculation, read-out: control of fungal infection, Erysiphe graminis fsp. tritici
[3] = test system: Puccinia recondita f.sp. tritici; test: Puccinia recondita f.sp. tritici (wheat brown rust) leaf disk assay; assay type: in vivo; conditions: foliar, 216 h, preventive, nine days after inoculation, read-out: control of fungal infection, Puccinia recondita f.sp. tritici
[4] = test system: Pyricularia oryzae; test: whole plant or invertebrate; assay type: in vivo; conditions: foliar, 96 h
[5] = test system: Plasmopara viticola; test: Plasmopara viticola (downy mildew of grapevine) leaf disk assay; assay type: in vivo; conditions: foliar, 168 h, preventive, seven days after inoculation, read-out: control of fungal infection, Plasmopara viticola
[6] = test system: Plutella xylostella; test: Plutella xylostella (Diamond back moth) artificial diet test; conditions: 120 h, read-out: control of Plutella xylostella
[7] = test system: Phytophthora infestans; test: whole plant or invertebrate; assay type: in vivo; conditions: foliar, 96 h, read-out: control of fungal infection, Phytophthora infestans
[8] = read-out: control of fungal infection, Pyricularia oryzae (at least 60% list)
[9] = read-out: control of fungal infection, Pyricularia oryzae (at least 80% list)

SMILES | melting point [°C] | pest or weed control at 2 ppm [1] [%] | pest or weed control at 200 ppm [2] [%] | pest or weed control at 200 ppm [3] [%] | pest or weed control at 200 ppm [5] [%] | other results
Cc1nn(C)c2nccc(N3[C@@H]4CC[C@H]3CC(Oc3ccc(Cl)cc3)C4)c12 (stereo partly shown) | 155 | – | – | – | – | –
CCc1ncnc(N2C3CCC2CC(=NO)C3)c1Cl | 73 | – | – | – | – | –
FC(F)(F)c1ccnc(OC2C[C@H]3CC[C@@H](C2)N3c2ncnc3ccsc23)c1 (stereo partly shown) | 211 | – | – | – | – | –
c1ccc(C2COC3(CC4CCC(C3)N4c3ncnc4sccc34)O2)cc1 (stereo not shown) [Example 6.7] | – | ≥ 80 | ≥ 80 | ≥ 80 | ≥ 80 | pest or weed control at 200 ppm [4, 8]: ≥ 60%; pest or weed control at 200 ppm [4, 9]: ≥ 80%
Cc1noc2ncnc(N3[C@@H]4CC[C@H]3CC(Oc3cc(C(F)(F)F)ccn3)C4)c12 (stereo partly shown) | 192 | – | – | – | – | –
Cc1noc2ncnc(N3[C@@H]4CC[C@H]3CC(Oc3ccc(C(F)(F)F)cn3)C4)c12 (stereo partly shown) | 238 | – | – | – | – | –
Cn1cc(C(=O)N2[C@@H]3CC[C@H]2CC(Oc2ccc(C(F)(F)F)cn2)C3)c(C(F)(F)F)c1 (stereo partly shown) [2.218] | 147 | – | – | – | – | –
CCc1ncnc(N2C3CCC2CC(CC(N)=O)C3)c1Cl (stereo not shown) | 101 | – | – | – | – | –
CCc1ncnc(N2C3CCC2CC(CC(N)=S)C3)c1Cl (stereo not shown) | 160 | – | – | – | – | –
O=C(NC1C[C@H]2CC[C@@H](C1)N2c1ncnc2sccc12)c1cccnc1 (stereo partly shown) | 170 | – | – | – | – | –
Clc1cc2c(cc1CON=C1CC3CCC(C1)N3c1ncnc3sccc13)OCO2 [Example 5.250] | – | ≥ 80 | ≥ 80 | ≥ 80 | ≥ 80 | –
N#Cc1ccccc1CON=C1CC2CCC(C1)N2c1ncnc2sccc12 [Example 5.191] | – | ≥ 80 | ≥ 80 | ≥ 80 | ≥ 80 | –
Clc1ccc(-c2csc(CC3CC4CCC(C3)N4c3ncnc4sccc34)n2)cc1 (stereo not shown) [Example 7.19] | – | ≥ 80 | – | – | ≥ 80 | pest or weed control at 200 ppm [6]: ≥ 80%
Fc1ccc(C(F)(F)F)cc1CON=C1CC2CCC(C1)N2c1ncnc2sccc12 [Example 5.238] | – | ≥ 80 | ≥ 80 | ≥ 80 | ≥ 80 | pest or weed control at 200 ppm [4, 8]: ≥ 60%; pest or weed control at 200 ppm [6]: ≥ 80%
Cc1cc(OCC=C2CC3CCC(C2)N3c2ncnc3sccc23)nc(C)n1 [Example 3.18] | – | ≥ 80 | – | ≥ 80 | ≥ 80 | –
Clc1ccc(-c2nc(CON=C3CC4CCC(C3)N4c3ncnc4sccc34)cs2)cc1 [Example 5.255] | – | ≥ 80 | ≥ 80 | ≥ 80 | ≥ 80 | pest or weed control at 200 ppm [7]: ≥ 80%
N#Cc1sc(N2[C@@H]3CC[C@H]2CC(Oc2cccc(C(F)(F)F)n2)C3)nc1C(F)(F)F (stereo partly shown) | 147 | – | – | – | – | –
CCc1ncnc(N2C3CCC2CC(=CC(=O)O)C3)c1Cl | 162 | – | – | – | – | –
CCc1ncnc(N2[C@@H]3CC[C@H]2CC(O)C3)c1Cl (stereo partly shown) | 104 | – | – | – | – | –
CCc1ncnc(N2C3CCC2CC(=NOCc2ccc(Br)cc2)C3)c1Cl [Example 5.19] | – | – | ≥ 80 | ≥ 80 | ≥ 80 | pest or weed control at 200 ppm [7]: ≥ 80%; pest or weed control at 200 ppm [6]: ≥ 80%
c1ccc2nc(CON=C3CC4CCC(C3)N4c3ncnc4sccc34)ccc2c1 [Example 5.193] | – | ≥ 80 | ≥ 80 | ≥ 80 | ≥ 80 | –
CCc1ncnc(N2C3CCC2CC(CC(=O)O)C3)c1Cl (stereo not shown) | 109 | – | – | – | – | –
Cn1cc(C(=O)N2[C@@H]3CC[C@H]2CC(Oc2cc(C(F)(F)F)ccn2)C3)c(C(F)(F)F)c1 (stereo partly shown) | 183 | – | – | – | – | –
O=C1c2ccccc2C(=O)N1OC1C[C@H]2CC[C@@H](C1)N2c1ncnc2sccc12 (stereo partly shown) [1.73] | 243 | – | – | – | – | –
N#Cc1c(Cl)nsc1N1[C@@H]2CC[C@H]1CC(Oc1cccc(C(F)(F)F)n1)C2 (stereo partly shown) | 158 | – | – | – | – | –
Cc1ccccc1CON=C1CC2CCC(C1)N2c1ncnc2sccc12 [Example 5.155] | – | ≥ 80 | ≥ 80 | ≥ 80 | ≥ 80 | pest or weed control at 200 ppm [4, 8]: ≥ 60%; pest or weed control at 200 ppm [6]: ≥ 80%

SMILES | melting point [°C] | pest or weed control at 2 ppm [1] [%] | pest or weed control at 200 ppm [2] [%] | pest or weed control at 200 ppm [3] [%] | pest or weed control at 200 ppm [5] [%] | other results
O=C(O)CC1CC2CCC(C1)N2c1ncnc2sccc12 (stereo not shown) | 181 | – | – | – | – | –
Clc1ccc(CON=C2CC3CCC(C2)N3c2ncnc3sccc23)cc1Cl [Example 5.169] | – | – | ≥ 80 | ≥ 80 | ≥ 80 | pest or weed control at 200 ppm [4, 8]: ≥ 60%; pest or weed control at 200 ppm [4, 9]: ≥ 80%; pest or weed control at 200 ppm [6]: ≥ 80%
Fc1cccc(OC2C[C@H]3CC[C@@H](C2)N3c2ncnc3sccc23)c1 (stereo partly shown) [Example 1.15] | – | – | – | ≥ 80 | ≥ 80 | –
O=C(CC1CC2CCC(C1)N2c1ncnc2sccc12)Nc1ccc(Cl)cc1 (stereo not shown) [Example 7.12] | – | – | – | ≥ 80 | ≥ 80 | –
CC(=O)NC1C[C@H]2CC[C@@H](C1)N2c1ncnc2sccc12 (stereo partly shown) | 196 | – | – | – | – | –
Clc1ccccc1CON=C1CC2CCC(C1)N2c1ncnc2sccc12 [Example 5.141] | – | ≥ 80 | ≥ 80 | ≥ 80 | ≥ 80 | pest or weed control at 200 ppm [4, 8]: ≥ 60%; pest or weed control at 200 ppm [7]: ≥ 80%; pest or weed control at 200 ppm [6]: ≥ 80%
CCc1ccc(CON=C2CC3CCC(C2)N3c2ncnc(CC)c2Cl)cc1 [Example 5.17] | – | ≥ 80 | ≥ 80 | ≥ 80 | ≥ 80 | pest or weed control at 200 ppm [7]: ≥ 80%; pest or weed control at 200 ppm [6]: ≥ 80%
CCCNC(=O)C=C1CC2CCC(C1)N2c1ncnc(CC)c1Cl [Example 3.5] | – | – | – | ≥ 80 | ≥ 80 | –
FC(F)(F)c1ccc(OC2C[C@H]3CC[C@@H](C2)N3c2ccnc3cc(Cl)ccc23)nc1 (stereo partly shown) | 107 | – | – | – | – | –
Cn1cc(C(=O)N2[C@@H]3CC[C@H]2CC(Oc2ccc(C(F)(F)F)cn2)C3)c(C(F)(F)F)c1 (stereo partly shown) [2.223] | 153 | – | – | – | – | –
Fc1cccc(OCC=C2CC3CCC(C2)N3c2ncnc3sccc23)c1 [Example 3.38] | – | ≥ 80 | – | ≥ 80 | ≥ 80 | pest or weed control at 200 ppm [4, 8]: ≥ 60%; pest or weed control at 200 ppm [4, 9]: ≥ 80%; pest or weed control at 200 ppm [6]: ≥ 80%
N#Cc1sc(N2[C@@H]3CC[C@H]2CC(Oc2cc(C(F)(F)F)ccn2)C3)nc1C(F)(F)F (stereo partly shown) | 129 | – | – | – | – | –
Clc1ccc(CON=C2CC3CCC(C2)N3c2ncnc3sccc23)cc1 [Example 5.142] | – | ≥ 80 | ≥ 80 | ≥ 80 | ≥ 80 | pest or weed control at 200 ppm [4, 8]: ≥ 60%; pest or weed control at 200 ppm [6]: ≥ 80%
COc1cc(C(C)=O)ccc1OC1C[C@H]2CC[C@@H](C1)N2c1ncnc2sccc12 (stereo partly shown) | 171 | – | – | – | – | –
Fc1cc(CON=C2CC3CCC(C2)N3c2ncnc3sccc23)cc(C(F)(F)F)c1 [Example 5.231] | – | – | ≥ 80 | – | ≥ 80 | pest or weed control at 200 ppm [4, 8]: ≥ 60%
FC(F)(F)c1csc(CC2CC3CCC(C2)N3c2ncnc3sccc23)n1 (stereo not shown) [Example 7.18] | – | ≥ 80 | – | ≥ 80 | ≥ 80 | pest or weed control at 200 ppm [4, 8]: ≥ 60%; pest or weed control at 200 ppm [4, 9]: ≥ 80%
CC1(C)COC2(CC3CCC(C2)N3c2ncnc3sccc23)O1 (stereo not shown) [Example 6.2] | – | – | ≥ 80 | ≥ 80 | ≥ 80 | pest or weed control at 200 ppm [7]: ≥ 80%
Cc1nc(OC2C[C@H]3CC[C@@H](C2)N3c2ncnc3sccc23)cc(N(C)C)n1 (stereo partly shown) [Example 1.53] | – | – | – | – | ≥ 80 | pest or weed control at 200 ppm [7]: ≥ 80%
Clc1ccc(OC2C[C@H]3CC[C@@H](C2)N3c2ncnc3sccc23)cc1 (stereo partly shown) | 184 | – | – | – | – | –
CCc1ncnc(N2[C@@H]3CC[C@H]2CC(ON)C3)c1Cl (stereo partly shown) | 70 | – | – | – | – | –
CCC1COC2(CC3CCC(C2)N3c2ncnc3sccc23)O1 (stereo not shown) [Example 6.9] | – | ≥ 80 | ≥ 80 | ≥ 80 | ≥ 80 | –
CCc1ncnc(N2C3CCC2CC(=NOCc2ccccc2OC)C3)c1Cl [Example 5.23] | – | – | ≥ 80 | ≥ 80 | ≥ 80 | –
COc1cc(ON=C2CC3CCC(C2)N3c2ncnc3sccc23)nc(SC)n1 [Example 5.246] | – | – | – | ≥ 80 | ≥ 80 | –
Cc1cccc(CON=C2CC3CCC(C2)N3c2ncnc3sccc23)c1 [Example 5.157] | – | – | ≥ 80 | ≥ 80 | ≥ 80 | pest or weed control at 200 ppm [4, 8]: ≥ 60%; pest or weed control at 200 ppm [7]: ≥ 80%
ClCC1COC2(CC3CCC(C2)N3c2ncnc3sccc23)O1 (stereo not shown) [Example 6.8] | – | ≥ 80 | ≥ 80 | ≥ 80 | ≥ 80 | –
CCOC(=O)c1ccc(CON=C2CC3CCC(C2)N3c2ncnc3sccc23)o1 [Example 5.259] | – | – | ≥ 80 | ≥ 80 | ≥ 80 | –
